ChEMBL document CHEMBL3603799, “3-Hydroxy-4-pyridinone derivatives designed for fluorescence studies to determine interaction with amyloid protein as well as cell permeability” (Bioorg Med Chem Lett, 2015)

Biological target: Amyloid-beta precursor protein (Homo sapiens) (UniProt P05067)
Assay: Binding affinity to amyloid beta (1 to 40) (unknown origin) assessed as increase in fluorescence after 3 hrs by UV-spectra analysis

Amyloid-beta precursor protein (Homo sapiens), sequence (P05067 whole entry): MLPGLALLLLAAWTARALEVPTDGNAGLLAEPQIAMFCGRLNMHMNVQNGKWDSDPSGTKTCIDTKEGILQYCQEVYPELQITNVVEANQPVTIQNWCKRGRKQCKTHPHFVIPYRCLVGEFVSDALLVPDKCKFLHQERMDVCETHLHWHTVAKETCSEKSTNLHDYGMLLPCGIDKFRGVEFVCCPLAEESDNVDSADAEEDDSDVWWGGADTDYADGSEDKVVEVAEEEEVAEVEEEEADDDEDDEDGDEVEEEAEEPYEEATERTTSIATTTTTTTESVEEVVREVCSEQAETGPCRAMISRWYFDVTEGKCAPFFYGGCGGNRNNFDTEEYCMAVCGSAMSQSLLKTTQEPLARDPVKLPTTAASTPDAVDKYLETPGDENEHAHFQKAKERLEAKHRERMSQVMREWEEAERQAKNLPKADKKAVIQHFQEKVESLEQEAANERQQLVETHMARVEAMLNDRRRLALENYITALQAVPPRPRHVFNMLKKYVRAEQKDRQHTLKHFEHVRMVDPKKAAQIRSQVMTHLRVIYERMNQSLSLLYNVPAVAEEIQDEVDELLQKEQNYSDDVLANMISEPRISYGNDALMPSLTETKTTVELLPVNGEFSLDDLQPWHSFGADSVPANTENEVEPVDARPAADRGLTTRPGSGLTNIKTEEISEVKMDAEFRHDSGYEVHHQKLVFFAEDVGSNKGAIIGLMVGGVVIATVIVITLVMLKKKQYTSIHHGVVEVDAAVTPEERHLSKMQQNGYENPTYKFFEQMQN

Row | Structure (SMILES) | Activity [%]
1 | Cc1c(O)c(=O)ccn1-c1ccc(-c2nc3ccccc3o2)cc1 | 3
2 | Cc1c(O)c(=O)ccn1-c1ccc(-c2nc3ccccc3s2)cc1 | 50
